Measured values published in US9624224B2, “Inhibitors of Bruton's tyrosine kinase” (Pharmacyclics LLC, priority 2013, dated 2017).
One block for each compound: values may come before it.

Key:
Assay type in all cases: biochemical
[1] = molecular target: T1, BTK (Homo sapiens, UniProt Q06187); assay: Btk in vitro inhibitory activity (TR-FRET, mobility shift or radiometric filter binding kinase assay); details: determined using one of the methods outlined in Example 47a, 47b, and 47c
T1 construct: purified from insect cells as a full-length construct containing a N-terminal 6×-His tag; His6 (N); made in house; host or cells: insect cells (baculovirus, Sf21)
T1 sequence (Q06187 whole entry): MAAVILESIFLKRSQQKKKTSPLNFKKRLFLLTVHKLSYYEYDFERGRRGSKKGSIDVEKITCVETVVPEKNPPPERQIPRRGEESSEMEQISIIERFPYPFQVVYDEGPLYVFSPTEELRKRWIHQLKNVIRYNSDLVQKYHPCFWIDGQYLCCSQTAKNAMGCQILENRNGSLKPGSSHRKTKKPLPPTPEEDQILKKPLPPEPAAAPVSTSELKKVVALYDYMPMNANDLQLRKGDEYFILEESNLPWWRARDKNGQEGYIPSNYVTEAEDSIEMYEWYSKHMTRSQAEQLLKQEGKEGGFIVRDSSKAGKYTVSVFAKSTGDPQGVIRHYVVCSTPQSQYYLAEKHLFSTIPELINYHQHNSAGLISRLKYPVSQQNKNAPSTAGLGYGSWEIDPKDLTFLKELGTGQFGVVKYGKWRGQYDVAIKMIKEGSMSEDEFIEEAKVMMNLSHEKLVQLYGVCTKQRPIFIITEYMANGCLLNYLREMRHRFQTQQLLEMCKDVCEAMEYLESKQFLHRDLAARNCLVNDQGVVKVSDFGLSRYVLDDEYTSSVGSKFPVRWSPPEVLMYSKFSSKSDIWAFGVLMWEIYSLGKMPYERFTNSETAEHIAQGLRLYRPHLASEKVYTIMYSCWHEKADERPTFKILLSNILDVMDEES
Protocol: (§1) Btk kinase activity is determined using a time-resolved fluorescence resonance energy transfer (TR-FRET) methodology. Measurements are performed in a reaction volume of 50 μL using 96-well assay plates. […] The reaction is quenched by the addition of 1.2 equivalents of EDTA (relative to divalent cation) in 25 μL of 1× Lance buffer (Perkin-Elmer). Streptavidin-APC (Perkin-Elmer) and Eu-labeled p-Tyr100 antibody (Perkin-Elmer) in 1× Lance buffer are added in a 25 μL volume to give final concentrations of 100 nM and 2.5 nM, respectively, and the mixture is allowed to incubate for one hour. The TR-FRET signal is measured on a multimode plate reader with an excitation wavelength (λEx) of 330 nm and detection wavelengths (λEm) of 615 and 665 nm. Activity is determined by the ratio of the fluorescence at 665 nm to that at 615 nm. For each compound, enzyme activity is measured at various concentrations of compound. Negative control reactions are performed in the absence of inhibitor in replicates of six, and two no-enzyme controls are used to determine baseline fluorescence levels. Inhibition constants, Ki(app), ware obtained using the program BatchKi (Kuzmic et al. (2000), Anal. Biochem. 286:45-50). IC50s are obtained according to the equation: IC50={Ki(app)/(1+[ATP]/Km^ATP)}+[E]total/2;
(§2) For all kinases, [ATP]=Km^ATP, [Btk]total=0.5 nM and [Lck]total=6 nM.
Kinase activity is measured in vitro using electrophoretic mobility shift assay. The kinase reactions are assembled in a total volume of 25 μL in 384 well plates. […] The reaction is incubated for one hour and is quenched by the addition of 45 μL of termination buffer (100 mM HEPES, pH7.5, 0.01% Triton X-100, 30 mM EDTA). The terminated reactions are analyzed using 12 channel LabChip® 3000 microfluidic detection instrument (Caliper Life Sciences). The enzymatic phosphorylation of the peptide results in a change in net charge, enabling electrophoretic separation of product from substrate peptide. As substrate and product peptides are separated, two peaks of fluorescence are observed. Change in the relative fluorescence intensity of the substrate and product peaks is the parameter measured, reflecting enzyme activity. In the presence of an inhibitor, the ratio between product and substrate is altered: the signal of the product decreases, while the signal of the substrate increases.
Activity in each sample is determined as the product to sum ratio (PSR): P/(S+P), where P is the peak height of the product peptide and S is the peak height of the substrate peptide. For each compound, enzyme activity is measured at various concentrations (12 concentrations of compound spaced by 3× dilution intervals). Negative control samples (0%-inhibition in the absence of inhibitor) and positive control samples (100%-inhibition, in the presence of 20 mM EDTA) are assembled in replicates of four and are used to calculate %-inhibition values for each inhibitor at each concentration. Percent inhibition (Pinh) is determined using following equation: Pinh=(PSR0%−PSRinh)/(PSR0%−PSR100%)*100,
where PSRmh is the product sum ratio in the presence of inhibitor, PSR0% is the average product sum ration in the absence of inhibitor and PSR100% is the average product sum ratio in 100%-inhibition control samples;
The IC50 values of inhibitors are determined by 4 parameter sigmoidal dose-response model fitting of the inhibition curves (Pinh versus inhibitor concentration) using XLfit 4 software.
Human Btk kinase (Genbank accession # NP_000052) was purified from insect cells as a full-length construct containing a N-terminal 6×-His tag. Btk kinase activity was determined using a radiometric filter binding assay. Measurements are performed in a low μL reaction volume 384-well assay plates. […]

[2] = molecular target: EGFR (Homo sapiens, UniProt P00533); assay: EGFR kinase inhibition (in vitro kinase assay)
Chain of EGFR (P00533 25-1210, species assumed): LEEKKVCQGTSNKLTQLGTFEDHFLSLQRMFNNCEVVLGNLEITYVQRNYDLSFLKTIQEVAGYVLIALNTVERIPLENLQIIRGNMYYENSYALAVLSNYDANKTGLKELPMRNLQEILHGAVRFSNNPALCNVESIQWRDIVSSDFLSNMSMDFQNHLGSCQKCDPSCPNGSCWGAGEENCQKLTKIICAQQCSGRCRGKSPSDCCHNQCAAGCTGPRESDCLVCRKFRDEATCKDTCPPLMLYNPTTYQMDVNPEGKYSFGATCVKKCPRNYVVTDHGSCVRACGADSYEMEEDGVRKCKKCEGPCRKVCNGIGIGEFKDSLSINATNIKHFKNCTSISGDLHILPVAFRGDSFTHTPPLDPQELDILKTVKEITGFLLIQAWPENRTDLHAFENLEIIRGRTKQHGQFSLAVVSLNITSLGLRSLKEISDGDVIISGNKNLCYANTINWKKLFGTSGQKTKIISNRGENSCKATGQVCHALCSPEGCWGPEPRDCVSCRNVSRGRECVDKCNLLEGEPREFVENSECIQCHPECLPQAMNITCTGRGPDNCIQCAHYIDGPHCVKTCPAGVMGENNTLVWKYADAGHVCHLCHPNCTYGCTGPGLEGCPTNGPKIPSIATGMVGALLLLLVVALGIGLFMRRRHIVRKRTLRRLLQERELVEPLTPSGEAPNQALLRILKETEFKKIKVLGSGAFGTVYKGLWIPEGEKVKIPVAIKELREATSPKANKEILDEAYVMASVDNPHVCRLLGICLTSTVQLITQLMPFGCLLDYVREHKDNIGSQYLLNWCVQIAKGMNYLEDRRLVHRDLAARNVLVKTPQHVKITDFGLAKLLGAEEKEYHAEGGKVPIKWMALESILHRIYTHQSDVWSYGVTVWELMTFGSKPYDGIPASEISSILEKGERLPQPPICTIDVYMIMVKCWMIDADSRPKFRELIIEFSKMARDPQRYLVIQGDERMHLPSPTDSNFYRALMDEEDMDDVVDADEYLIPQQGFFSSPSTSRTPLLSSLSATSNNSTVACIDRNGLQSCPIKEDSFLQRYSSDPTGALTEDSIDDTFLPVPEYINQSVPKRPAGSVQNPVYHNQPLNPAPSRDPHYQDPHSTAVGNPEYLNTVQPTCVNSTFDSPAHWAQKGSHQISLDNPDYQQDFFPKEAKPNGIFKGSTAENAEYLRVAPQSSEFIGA

[3] = molecular target: Lck (Homo sapiens, UniProt P06239); assay: Lck kinase inhibition (in vitro kinase assay)
Chain of Lck (P06239 whole entry, species assumed): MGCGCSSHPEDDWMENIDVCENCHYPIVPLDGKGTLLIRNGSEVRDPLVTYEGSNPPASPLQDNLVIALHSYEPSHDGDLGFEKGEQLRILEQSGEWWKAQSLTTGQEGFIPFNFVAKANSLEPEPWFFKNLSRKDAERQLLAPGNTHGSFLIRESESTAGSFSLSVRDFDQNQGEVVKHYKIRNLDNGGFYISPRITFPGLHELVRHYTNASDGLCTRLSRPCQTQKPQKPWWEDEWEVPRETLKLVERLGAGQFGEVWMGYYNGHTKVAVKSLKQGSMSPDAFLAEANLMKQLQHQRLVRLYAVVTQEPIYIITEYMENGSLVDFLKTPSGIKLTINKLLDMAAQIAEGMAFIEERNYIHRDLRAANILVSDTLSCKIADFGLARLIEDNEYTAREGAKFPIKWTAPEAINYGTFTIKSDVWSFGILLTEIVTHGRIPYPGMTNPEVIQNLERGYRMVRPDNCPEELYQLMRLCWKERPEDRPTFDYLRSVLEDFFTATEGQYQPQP
Protocol: as §1, §2

SMILES: CN(C/C=C/C(=O)N1CCC[C@@H](n2nc(-c3ccc(C(=O)Nc4ccccn4)cc3)c3c(N)ncnc32)C1)C1CC1 [Example 34, (R,E)-4-(4-amino-1-(1-(4-(cyclopropyl(methyl)amino)but-2-enoyl)piperidin-3-yl)-1H-pyrazolo[3,4-d]pyrimidin-3-yl)-N-(pyridin-2-yl)benzamide]
IC50 [1]: < 100 nM

SMILES: CN(C/C=C/C(=O)N1CCC[C@@H](n2nc(-c3ccc(C(=O)Nc4cc(C(F)(F)F)ccn4)cc3)c3c(N)ncnc32)C1)C1CC1 [Example 36, (R,E)-4-(4-amino-1-(1-(4-(cyclopropyl(methyl)amino)but-2-enoyl)piperidin-3-yl)-1H-pyrazolo[3,4-d]pyrimidin-3-yl)-N-(4-(trifluoromethyl)pyridin-2-yl)benzamide]
IC50 [1]: < 1 nM

SMILES: CCCc1ccnc(NC(=O)c2ccc(-c3nn([C@@H]4CCCN(C(=O)/C=C/CN(C)C5CC5)C4)c4ncnc(N)c34)cc2)c1 [Example 37, (R,E)-4-(4-amino-1-(1-(4-(cyclopropyl(methyl)amino)but-2-enoyl)piperidin-3-yl)-1H-pyrazolo[3,4-d]pyrimidin-3-yl)-N-(4-propylpyridin-2-yl)benzamide]
IC50 [1]: < 1 nM

SMILES: CN(C/C=C/C(=O)N1CCC[C@@H](n2nc(-c3ccc(C(=O)Nc4cc(C#N)ccn4)cc3)c3c(N)ncnc32)C1)C1CC1 [Example 38, (R,E)-4-(4-amino-1-(1-(4-(cyclopropyl(methyl)amino)but-2-enoyl)piperidin-3-yl)-1H-pyrazolo[3,4-d]pyrimidin-3-yl)-N-(4-cyanopyridin-2-yl)benzamide]
IC50 [1]: < 1 nM

SMILES: CC(C)c1ccnc(NC(=O)c2ccc(-c3nn([C@@H]4CCCN(C(=O)/C=C/CN(C)C5CC5)C4)c4ncnc(N)c34)cc2)c1 [Example 39, (R,E)-4-(4-amino-1-(1-(4-(cyclopropyl(methyl)amino)but-2-enoyl)piperidin-3-yl)-1H-pyrazolo[3,4-d]pyrimidin-3-yl)-N-(4-isopropylpyridin-2-yl)benzamide]
IC50 [1]: < 100 nM

SMILES: CN(C)C/C=C/C(=O)N1CCC[C@@H](n2nc(-c3ccc(C(=O)Nc4ccccn4)cc3)c3c(N)ncnc32)C1 [Example 40, (R,E)-4-(4-amino-1-(1-(4-(dimethylamino)but-2-enoyl)piperidin-3-yl)-1H-pyrazolo[3,4-d]pyrimidin-3-yl)-N-(pyridin-2-yl)benzamide]
IC50 [1]: < 1 nM

SMILES: Cc1ccnc(NC(=O)c2ccc(-c3nn([C@@H]4CCCN(C(=O)/C=C/CN(C)C)C4)c4ncnc(N)c34)cc2)c1 [Example 41, (R,E)-4-(4-amino-1-(1-(4-(dimethylamino)but-2-enoyl)piperidin-3-yl)-1H-pyrazolo[3,4-d]pyrimidin-3-yl)-N-(4-methylpyridin-2-yl)benzamide]
IC50 [1]: < 1 nM

SMILES: CN(C)C/C=C/C(=O)N1CCC[C@@H](n2nc(-c3ccc(C(=O)Nc4cc(C(F)(F)F)ccn4)cc3)c3c(N)ncnc32)C1 [Example 42, (R,E)-4-(4-amino-1-(1-(4-(dimethylamino)but-2-enoyl)piperidin-3-yl)-1H-pyrazolo[3,4-d]pyrimidin-3-yl)-N-(4-(trifluoromethyl)pyridin-2-yl)benzamide]
IC50 [1]: < 1 nM

SMILES: CCCc1ccnc(NC(=O)c2ccc(-c3nn([C@@H]4CCCN(C(=O)/C=C/CN(C)C)C4)c4ncnc(N)c34)cc2)c1 [Example 43, (R,E)-4-(4-amino-1-(1-(4-(dimethylamino)but-2-enoyl)piperidin-3-yl)-1H-pyrazolo[3,4-d]pyrimidin-3-yl)-N-(4-propylpyridin-2-yl)benzamide]
IC50 [1]: < 1 nM

SMILES: CC(C)c1ccnc(NC(=O)c2ccc(-c3nn([C@@H]4CCCN(C(=O)/C=C/CN(C)C)C4)c4ncnc(N)c34)cc2)c1 [Example 44, (R,E)-4-(4-amino-1-(1-(4-(dimethylamino)but-2-enoyl)piperidin-3-yl)-1H-pyrazolo[3,4-d]pyrimidin-3-yl)-N-(4-isopropylpyridin-2-yl)benzamide]
IC50 [1]: < 1 nM

SMILES: CN(C)C/C=C/C(=O)N1CCC[C@@H](n2nc(-c3ccc(C(=O)Nc4cc(C#N)ccn4)cc3)c3c(N)ncnc32)C1 [Example 45, (R,E)-4-(4-amino-1-(1-(4-(dimethylamino)but-2-enoyl)piperidin-3-yl)-1H-pyrazolo[3,4-d]pyrimidin-3-yl)-N-(4-cyanopyridin-2-yl)benzamide]
IC50 [1]: < 1 nM

SMILES: CN(C/C=C/C(=O)N1CC[C@@H](n2nc(-c3ccc(C(=O)Nc4ccccn4)cc3)c3c(N)ncnc32)C1)C1CC1 [Example 46, (R,E)-4-(4-amino-1-(1-(4-(cyclopropyl(methyl)amino)but-2-enoyl)pyrrolidin-3-yl)-1H-pyrazolo[3,4-d]pyrimidin-3-yl)-N-(pyridin-2-yl)benzamide]
IC50 [3]: 100 to 1000 nM

Second part, the compound after the results:

IC50 [1]: < 1 nM
IC50 [2]: 1000 to 10000 nM
IC50 [3]: 100 to 1000 nM
SMILES: Cc1ccnc(NC(=O)c2ccc(-c3nn([C@@H]4CCN(C(=O)/C=C/CN(C)C5CC5)C4)c4ncnc(N)c34)cc2)c1 [Example 1, (R,E)-4-(4-amino-1-(1-(4-(cyclopropyl(methyl)amino)but-2-enoyl)pyrrolidin-3-yl)-1H-pyrazolo[3,4-d]pyrimidin-3-yl)-N-(4-methylpyridin-2-yl)benzamide]

IC50 [1]: < 1 nM
IC50 [2]: 100 to 1000 nM
IC50 [3]: 100 to 1000 nM
SMILES: CN(C/C=C/C(=O)N1CC[C@@H](n2nc(-c3ccc(C(=O)Nc4cc(C(F)(F)F)ccn4)cc3)c3c(N)ncnc32)C1)C1CC1 [Example 2, (R,E)-4-(4-Amino-1-(1-(4-(cyclopropyl(methyl)amino)but-2-enoyl)pyrrolidin-3-yl)-1H-pyrazolo[3,4-d]pyrimidin-3-yl)-N-(4-(trifluoromethyl)pyridin-2-yl)benzamide]

IC50 [1]: < 1 nM
IC50 [2]: 100 to 1000 nM
IC50 [3]: 100 to 1000 nM
SMILES: CCCc1ccnc(NC(=O)c2ccc(-c3nn([C@@H]4CCN(C(=O)/C=C/CN(C)C5CC5)C4)c4ncnc(N)c34)cc2)c1 [Example 3, (R,E)-4-(4-amino-1-(1-(4-(cyclopropyl(methyl)amino)but-2-enoyl)pyrrolidin-3-yl)-1H-pyrazolo[3,4-d]pyrimidin-3-yl)-N-(4-propylpyridin-2-yl)benzamide]

IC50 [1]: < 1 nM
IC50 [2]: 1000 to 10000 nM
IC50 [3]: 100 to 1000 nM
SMILES: CCc1ccnc(NC(=O)c2ccc(-c3nn([C@@H]4CCN(C(=O)/C=C/CN(C)C5CC5)C4)c4ncnc(N)c34)cc2)c1 [Example 4, (R,E)-4-(4-amino-1-(1-(4-(cyclopropyl(methyl)amino)but-2-enoyl)pyrrolidin-3-yl)-1H-pyrazolo[3,4-d]pyrimidin-3-yl)-N-(4-ethylpyridin-2-yl)benzamide]

IC50 [1]: < 1 nM
SMILES: CCCc1ccnc(NC(=O)c2ccc(-c3nn([C@@H]4CCN(C(=O)/C=C/CN(C)C)C4)c4ncnc(N)c34)cc2)c1 [Example 33, (R,E)-4-(4-amino-1-(1-(4-(dimethylamino)but-2-enoyl)pyrrolidin-3-yl)-1H-pyrazolo[3,4-d]pyrimidin-3-yl)-N-(4-propylpyridin-2-yl)benzamide]

IC50 [1]: < 1 nM
SMILES: Cc1ccnc(NC(=O)c2ccc(-c3nn([C@@H]4CCCN(C(=O)/C=C/CN(C)C5CC5)C4)c4ncnc(N)c34)cc2)c1 [Example 35, (R,E)-4-(4-amino-1-(1-(4-(cyclopropyl(methyl)amino)but-2-enoyl)piperidin-3-yl)-1H-pyrazolo[3,4-d]pyrimidin-3-yl)-N-(4-methylpyridin-2-yl)benzamide]
